Measured values: patent US20170190705A1, “Compositions and Methods for Inhibiting BMP” (THE BRIGHAM AND WOMAN'S HOSPITAL, INC., priority 2014, published 2017)

What was measured:
ITK = molecular target: T1, ITK (Homo sapiens, UniProt Q08881); test: Kinome profiling ITK; type: biochemical; conditions: read-out: Inhibitory activity ITK; for inhibition at 0.1 µM: 100 nM
T1 sequence (Q08881 1-620): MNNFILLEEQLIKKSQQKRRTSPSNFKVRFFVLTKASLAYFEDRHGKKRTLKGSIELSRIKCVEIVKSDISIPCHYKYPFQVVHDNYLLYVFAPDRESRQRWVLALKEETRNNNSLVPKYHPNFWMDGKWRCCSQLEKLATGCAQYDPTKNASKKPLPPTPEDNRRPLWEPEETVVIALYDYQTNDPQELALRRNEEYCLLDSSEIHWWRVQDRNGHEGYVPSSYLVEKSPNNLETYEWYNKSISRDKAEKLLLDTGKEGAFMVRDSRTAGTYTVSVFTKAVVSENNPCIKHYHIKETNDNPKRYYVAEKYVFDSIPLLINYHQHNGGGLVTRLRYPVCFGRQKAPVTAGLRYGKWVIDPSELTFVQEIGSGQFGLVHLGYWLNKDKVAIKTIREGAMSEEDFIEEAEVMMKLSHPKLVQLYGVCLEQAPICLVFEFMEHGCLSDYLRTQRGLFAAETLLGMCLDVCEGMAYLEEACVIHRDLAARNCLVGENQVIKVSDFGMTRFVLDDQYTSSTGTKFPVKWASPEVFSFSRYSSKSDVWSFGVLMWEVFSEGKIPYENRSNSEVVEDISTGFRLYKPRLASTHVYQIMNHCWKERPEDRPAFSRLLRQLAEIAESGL
Procedure: (§1) . The kinome-wide selectivity was determined following the methods previously reported by Mohedas et al., ACS Chem Biol 2013, 8, 1291-1302 and Sanvitale et al., PLoS One 2013, 8, e62721.

TEC = molecular target: T2, TEC (Homo sapiens, UniProt P42680); test: Kinome profiling TEC; type: biochemical; conditions: read-out: Inhibitory activity TEC; for inhibition at 0.1 µM: 100 nM
T2 sequence (P42680 1-631): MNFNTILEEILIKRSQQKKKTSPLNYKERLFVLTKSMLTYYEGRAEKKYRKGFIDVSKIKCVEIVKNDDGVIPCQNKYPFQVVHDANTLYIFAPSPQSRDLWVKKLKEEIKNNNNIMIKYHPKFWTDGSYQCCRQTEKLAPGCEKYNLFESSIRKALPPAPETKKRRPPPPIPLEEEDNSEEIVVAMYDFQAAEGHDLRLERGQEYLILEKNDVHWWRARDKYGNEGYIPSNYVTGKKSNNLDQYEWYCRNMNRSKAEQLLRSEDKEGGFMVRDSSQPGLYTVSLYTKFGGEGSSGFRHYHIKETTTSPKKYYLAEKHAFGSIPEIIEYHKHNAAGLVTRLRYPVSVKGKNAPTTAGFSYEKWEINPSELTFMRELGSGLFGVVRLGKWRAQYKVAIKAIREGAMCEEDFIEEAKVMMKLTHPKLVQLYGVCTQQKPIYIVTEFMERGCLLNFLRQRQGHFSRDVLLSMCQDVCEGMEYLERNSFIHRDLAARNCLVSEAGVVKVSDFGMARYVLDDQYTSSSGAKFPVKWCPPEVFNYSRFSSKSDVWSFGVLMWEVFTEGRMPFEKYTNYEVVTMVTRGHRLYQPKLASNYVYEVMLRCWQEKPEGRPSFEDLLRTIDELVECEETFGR
Procedure: as §1

MSK1 = MSK1 (Homo sapiens, UniProt O75582); test: Kinome profiling MSK1; type: biochemical; conditions: read-out: Inhibitory activity MSK1; for inhibition at 0.1 µM: 100 nM
Chain of MSK1 (O75582 whole entry): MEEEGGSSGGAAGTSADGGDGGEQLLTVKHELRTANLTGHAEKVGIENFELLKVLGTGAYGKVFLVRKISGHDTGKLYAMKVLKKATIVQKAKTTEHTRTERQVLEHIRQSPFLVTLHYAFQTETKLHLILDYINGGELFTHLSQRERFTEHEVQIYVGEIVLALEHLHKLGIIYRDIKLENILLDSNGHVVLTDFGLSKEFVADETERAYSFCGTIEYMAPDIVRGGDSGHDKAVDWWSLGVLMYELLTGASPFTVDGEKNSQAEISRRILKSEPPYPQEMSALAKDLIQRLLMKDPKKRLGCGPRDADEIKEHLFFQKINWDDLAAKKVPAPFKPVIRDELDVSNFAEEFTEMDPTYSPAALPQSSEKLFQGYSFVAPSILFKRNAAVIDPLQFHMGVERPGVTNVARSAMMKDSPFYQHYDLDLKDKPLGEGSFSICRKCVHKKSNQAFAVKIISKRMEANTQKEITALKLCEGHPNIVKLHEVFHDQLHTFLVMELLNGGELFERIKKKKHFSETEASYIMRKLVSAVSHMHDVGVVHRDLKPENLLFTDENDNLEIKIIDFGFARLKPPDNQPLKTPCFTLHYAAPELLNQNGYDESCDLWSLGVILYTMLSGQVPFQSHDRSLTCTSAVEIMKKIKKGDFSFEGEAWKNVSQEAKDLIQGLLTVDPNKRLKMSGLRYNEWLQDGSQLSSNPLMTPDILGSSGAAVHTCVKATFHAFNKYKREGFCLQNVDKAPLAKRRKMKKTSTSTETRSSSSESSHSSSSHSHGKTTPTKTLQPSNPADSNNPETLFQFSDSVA
Procedure: as §1

IGF1R = IGF1R (Homo sapiens, UniProt P08069); test: Kinome profiling IGF1R; type: biochemical; conditions: read-out: Inhibitory activity IGF1R; for inhibition at 0.1 µM: 100 nM
Chain of IGF1R (P08069 31-1367): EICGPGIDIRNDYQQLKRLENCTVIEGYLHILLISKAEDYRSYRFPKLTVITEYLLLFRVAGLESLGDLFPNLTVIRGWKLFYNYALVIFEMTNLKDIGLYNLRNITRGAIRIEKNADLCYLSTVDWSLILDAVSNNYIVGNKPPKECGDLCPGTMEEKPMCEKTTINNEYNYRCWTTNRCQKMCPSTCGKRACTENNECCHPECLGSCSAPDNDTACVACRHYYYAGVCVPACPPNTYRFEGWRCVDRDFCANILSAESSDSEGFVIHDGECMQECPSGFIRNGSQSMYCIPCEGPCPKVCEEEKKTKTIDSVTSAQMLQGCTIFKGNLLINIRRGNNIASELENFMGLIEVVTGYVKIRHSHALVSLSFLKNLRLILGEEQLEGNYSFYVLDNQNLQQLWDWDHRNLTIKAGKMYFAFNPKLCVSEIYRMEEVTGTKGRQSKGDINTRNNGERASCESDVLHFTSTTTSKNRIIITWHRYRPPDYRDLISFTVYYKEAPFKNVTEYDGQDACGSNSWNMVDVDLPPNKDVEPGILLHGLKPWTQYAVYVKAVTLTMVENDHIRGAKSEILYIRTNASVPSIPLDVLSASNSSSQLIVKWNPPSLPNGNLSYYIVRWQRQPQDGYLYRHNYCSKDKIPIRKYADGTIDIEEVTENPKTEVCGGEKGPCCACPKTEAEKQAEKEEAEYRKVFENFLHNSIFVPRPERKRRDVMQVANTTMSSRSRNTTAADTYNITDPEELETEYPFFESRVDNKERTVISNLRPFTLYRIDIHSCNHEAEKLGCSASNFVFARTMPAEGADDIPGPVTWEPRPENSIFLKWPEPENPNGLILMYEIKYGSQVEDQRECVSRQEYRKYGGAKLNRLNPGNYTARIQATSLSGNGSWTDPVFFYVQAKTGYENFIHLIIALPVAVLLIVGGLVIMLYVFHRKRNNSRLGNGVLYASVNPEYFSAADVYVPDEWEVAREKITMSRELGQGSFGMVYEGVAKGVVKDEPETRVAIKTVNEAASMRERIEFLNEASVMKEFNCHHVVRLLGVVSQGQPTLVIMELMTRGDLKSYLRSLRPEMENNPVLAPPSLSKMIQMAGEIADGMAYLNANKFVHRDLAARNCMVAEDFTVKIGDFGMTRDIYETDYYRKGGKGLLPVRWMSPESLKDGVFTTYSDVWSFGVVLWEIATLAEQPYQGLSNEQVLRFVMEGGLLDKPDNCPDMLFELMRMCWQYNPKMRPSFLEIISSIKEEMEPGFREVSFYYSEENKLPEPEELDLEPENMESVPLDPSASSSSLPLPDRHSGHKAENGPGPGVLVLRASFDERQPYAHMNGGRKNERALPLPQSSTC
Procedure: as §1

ALK5 = molecular target: T3, ALK5 (Homo sapiens, UniProt P36897); test: Thermal shift kinase assay ALK5; type: binding; conditions: for ΔTm at 10 µM: 10 μM inhibitor; for ΔT ALK5: Table 6
T3 construct: made in house
T3 sequence (P36897 34-503): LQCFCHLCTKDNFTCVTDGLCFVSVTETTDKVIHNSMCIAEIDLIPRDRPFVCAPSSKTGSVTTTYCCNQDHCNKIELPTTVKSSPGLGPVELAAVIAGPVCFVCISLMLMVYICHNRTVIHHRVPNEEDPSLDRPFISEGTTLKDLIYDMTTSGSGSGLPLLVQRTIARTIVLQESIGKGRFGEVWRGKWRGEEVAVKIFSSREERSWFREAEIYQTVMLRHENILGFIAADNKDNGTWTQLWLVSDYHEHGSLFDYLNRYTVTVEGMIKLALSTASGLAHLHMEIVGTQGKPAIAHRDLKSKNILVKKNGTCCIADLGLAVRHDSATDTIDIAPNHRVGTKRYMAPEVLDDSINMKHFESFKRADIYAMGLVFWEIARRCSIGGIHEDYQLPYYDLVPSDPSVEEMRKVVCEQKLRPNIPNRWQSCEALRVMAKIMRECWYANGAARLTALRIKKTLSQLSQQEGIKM
Procedure: Thermal melting experiments were performed using a Real Time PCR machine Mx3005p (Stratagene) with a protein concentration of 1-2 μM and 10 μM inhibitor as described by Niesen et al., Nat Protoc 2007, 2, 2212-21. Recombinant human kinases for DSF screening were prepared by SGC using the published methods of Sanvitale et al., PLoS One 2013, 8, e62721. The potency and selectivity of certain compounds of the invention based on thermal shift kinase and ligand induced transcriptional activity assays are shown in Table 2.

| Compound | inhibition at 0.1 µM (ITK) [%] | inhibition at 1 µM (ITK) [%] | inhibition at 0.1 µM (TEC) [%] | inhibition at 1 µM (TEC) [%] | inhibition at 0.1 µM (MSK1) [%] | inhibition at 1 µM (MSK1) [%] | inhibition at 0.1 µM (IGF1R) [%] | inhibition at 1 µM (IGF1R) [%] | ΔTm at 10 µM (ALK5) [°C] | ΔT ALK5 (ALK5) [°C] |
| --- | --- | --- | --- | --- | --- | --- | --- | --- | --- | --- |
| COc1cc(-c2cc(-c3ccc(N4CCNCC4)cc3)cnc2C)cc(OC)c1OC [Compound 10, 1-(4-(6-methyl-5-(3,4,5-trimethoxyphenyl)pyridin-3-yl)phenyl)piperazine] | 0 | -1 | 0 | 0 | 1 | 0 | 0 | 0 | 9.7 | 9.7 |
| COc1cc(-c2cc(-c3ccc(N4CCNCC4)cc3)cnc2N)cc(OC)c1OC [Compound 15, 5-(4-(piperazin-1-yl)phenyl)-3-(3,4,5-trimethoxyphenyl)pyridin-2-amine] | 0 | 2 | 5 | 24 | 0 | 0 | 2 | 4 | 13.9 | 13.9 |
